Measurements taken from patent publication US20070128217A1 (priority 2003, published 2007).

Legend:
[1] = tested on: rabbit serum obtained by immunizing a rabbit with the SARS-CoV strain Frankfurt 1; assay type: binding; parameters: Binding of a rabbit serum to linear peptides / Binding of a rabbit serum to looped peptides / Rabbit serum linear peptides / Rabbit serum looped peptides / Binding of a rabbit serum to linear peptides of protein N of SARS-CoV Urbani (Rabbit serum linear peptides) / Binding of a rabbit serum to looped/cyclic peptides of protein N of SARS-CoV Urbani (Rabbit serum looped peptides): unit not given here
[2] = tested on: antibodies in sera from SARS patients (sera 1a, 1b, 2, 6, 37, 62, London, SARS-yellow, SARS-green); assay type: binding, human; parameters: Binding of serum 6 to linear peptides of protein X1 of SARS-CoV Urbani / Binding of serum 37 to linear peptides of protein X1 of SARS-CoV Urbani / Binding of serum 6 to looped/cyclic peptide (PEPSCAN-ELISA) / Binding of serum 37 to looped/cyclic peptide (PEPSCAN-ELISA) / Binding of serum 37 to looped/cyclic peptides of protein X1 of SARS-CoV Urbani / Binding of serum 6 to linear peptides of protein X2 / Binding of serum 37 to linear peptides of protein X2 / Binding of serum 37 to looped/cyclic peptides of protein X2 of SARS-CoV Urbani / Binding of serum 6 to linear peptides of protein M of SARS-CoV Urbani / Binding of serum 37 to linear peptides of protein M of SARS-CoV Urbani / Binding of serum 6 to looped/cyclic peptides of protein M of SARS-CoV Urbani / Binding of serum 37 to looped/cyclic peptides of protein M of SARS-CoV Urbani / Binding of serum 6 to linear peptides of protein X3 of SARS-CoV Urbani / Binding of serum 37 to linear peptides of protein X3 of SARS-CoV Urbani / Binding of serum 37 to looped/cyclic peptides of protein X3 of SARS-CoV Urbani / Binding of serum 6 to linear peptides of protein X4 of SARS-CoV Urbani / Binding of serum 37 to linear peptides of protein X4 of SARS-CoV Urbani / Binding of serum 37 to looped/cyclic peptides of protein X4 of SARS-CoV Urbani / Binding of serum 6 to linear peptides of protein X5 of SARS-CoV Urbani / Binding of serum 37 to linear peptides of protein X5 of SARS-CoV Urbani / Binding of serum 37 to looped/cyclic peptides of protein X5 of SARS-CoV Urbani / Binding of serum 6 to linear peptides of protein N of SARS-CoV Urbani / Binding of serum 37 to linear peptides of protein N of SARS-CoV Urbani / Binding of serum 6 to linear peptide (PEPSCAN-ELISA) / Binding of serum 1a to looped/cyclic peptides of protein N of SARS-CoV Urbani / Binding of serum 1b to looped/cyclic peptides of protein N of SARS-CoV Urbani / Binding of serum 2 to looped/cyclic peptides of protein N of SARS-CoV Urbani / Binding of serum 6 to looped/cyclic peptides of protein N of SARS-CoV Urbani / Binding of serum 37 to looped/cyclic peptides of protein N of SARS-CoV Urbani / Binding of serum 62 to looped/cyclic peptides of protein N of SARS-CoV Urbani / Binding of serum London to looped/cyclic peptides of protein N of SARS-CoV Urbani / Binding of serum SARS-green to looped/cyclic peptides of protein N of SARS-CoV Urbani: unit not given here
[3] = tested on: control sera (pooled serum of ten healthy LUMC hospital workers; commercial negative donor pooled serum from the Dutch bloodbank); assay type: binding, human; parameters: Binding of Control serum LUMC to linear peptides / Binding of Control serum Blood-bank to linear peptides / Binding of Control serum LUMC to looped peptides / Binding of Control Serum Blood-Bank to Looped peptides / Binding of Control serum LUMC to linear peptides of the protein M of SARS-CoV Urbani / Binding of Control serum Blood-bank to linear peptides of the protein M of SARS-CoV Urbani / Binding of Control serum LUMC to looped peptides of the protein M of SARS-CoV Urbani / Binding of Control Serum Blood-Bank to Looped peptides of the protein M of SARS-CoV Urbani: unit not given here

TMSLYMAISPKFTTS
Binding of a rabbit serum to linear peptides [1]: 0.2 | Binding of a rabbit serum to looped peptides [1]: 0.5 | Binding of serum 1a to linear peptides of protein X2 [2]: 0.5 | Binding of serum 1a to looped/cyclic peptides of protein X2 of SARS-CoV Urbani [2]: 0.6 | Binding of serum 1b to linear peptides of protein X2 [2]: 0.0 | Binding of serum 1b to looped/cyclic peptides of protein X2 of SARS-CoV Urbani [2]: 0.6 | Binding of serum 2 to linear peptides of protein X2 [2]: 0.4 | Binding of serum 2 to looped/cyclic peptides of protein X2 of SARS-CoV Urbani [2]: 0.4 | Binding of serum 6 to linear peptides of protein X2 [2]: 0.3 | Binding of serum 6 to looped/cyclic peptides of protein X2 of SARS-CoV Urbani [2]: 0.4 | Binding of serum 37 to linear peptides of protein X2 [2]: 0.2 | Binding of serum 37 to looped/cyclic peptides of protein X2 of SARS-CoV Urbani [2]: 0.5 | Binding of serum 62 to linear peptides of protein X2 [2]: 0.7 | Binding of serum 62 to looped/cyclic peptides of protein X2 of SARS-CoV Urbani [2]: 0.7 | Binding of serum London to linear peptides of protein X2 [2]: 0.4 | Binding of serum London to looped/cyclic peptides of protein X2 of SARS-CoV Urbani [2]: 0.2 | Binding of serum SARS-green to linear peptides of protein X2 [2]: 0.5 | Binding of serum SARS-green to looped/cyclic peptides of protein X2 of SARS-CoV Urbani [2]: 0.4 | Binding of serum SARS-yellow to linear peptides of protein X2 [2]: 0.0 | Binding of serum SARS-yellow to looped/cyclic peptides of protein X2 of SARS-CoV Urbani [2]: 0.6 | Binding of Control Serum Blood-Bank to Looped peptides [3]: 0.8 | Binding of Control serum Blood-bank to linear peptides [3]: 0.5 | Binding of Control serum LUMC to linear peptides [3]: 0.7 | Binding of Control serum LUMC to looped peptides [3]: 0.8

TMTTVYHITVSQIQL
Binding of a rabbit serum to linear peptides [1]: 0.7 | Binding of a rabbit serum to looped peptides [1]: 0.4 | Binding of serum 1a to linear peptides of protein X2 [2]: 0.6 | Binding of serum 1a to looped/cyclic peptides of protein X2 of SARS-CoV Urbani [2]: 0.4 | Binding of serum 1b to linear peptides of protein X2 [2]: 0.2 | Binding of serum 1b to looped/cyclic peptides of protein X2 of SARS-CoV Urbani [2]: 0.4 | Binding of serum 2 to linear peptides of protein X2 [2]: 0.4 | Binding of serum 2 to looped/cyclic peptides of protein X2 of SARS-CoV Urbani [2]: 0.3 | Binding of serum 6 to linear peptides of protein X2 [2]: 0.5 | Binding of serum 6 to looped/cyclic peptides of protein X2 of SARS-CoV Urbani [2]: 0.2 | Binding of serum 37 to linear peptides of protein X2 [2]: 0.7 | Binding of serum 37 to looped/cyclic peptides of protein X2 of SARS-CoV Urbani [2]: 0.4 | Binding of serum 62 to linear peptides of protein X2 [2]: 0.3 | Binding of serum 62 to looped/cyclic peptides of protein X2 of SARS-CoV Urbani [2]: 0.5 | Binding of serum London to linear peptides of protein X2 [2]: 0.4 | Binding of serum London to looped/cyclic peptides of protein X2 of SARS-CoV Urbani [2]: 0.2 | Binding of serum SARS-green to linear peptides of protein X2 [2]: 0.2 | Binding of serum SARS-green to looped/cyclic peptides of protein X2 of SARS-CoV Urbani [2]: 0.3 | Binding of serum SARS-yellow to linear peptides of protein X2 [2]: 0.7 | Binding of serum SARS-yellow to looped/cyclic peptides of protein X2 of SARS-CoV Urbani [2]: 0.3 | Binding of Control Serum Blood-Bank to Looped peptides [3]: 0.6 | Binding of Control serum Blood-bank to linear peptides [3]: 0.6 | Binding of Control serum LUMC to linear peptides [3]: 0.8 | Binding of Control serum LUMC to looped peptides [3]: 0.5

TNILLNVPLRGTIVT
Rabbit serum linear peptides [1]: 0.2 | Rabbit serum looped peptides [1]: 0.1 | Binding of serum 1a to linear peptides of protein M of SARS-CoV Urbani [2]: 0.6 | Binding of serum 1a to looped/cyclic peptides of protein M of SARS-CoV Urbani [2]: 0.6 | Binding of serum 1b to linear peptides of protein M of SARS-CoV Urbani [2]: 0.5 | Binding of serum 1b to looped/cyclic peptides of protein M of SARS-CoV Urbani [2]: 0.4 | Binding of serum 2 to linear peptides of protein M of SARS-CoV Urbani [2]: 0.6 | Binding of serum 2 to looped/cyclic peptides of protein M of SARS-CoV Urbani [2]: 0.6 | Binding of serum 6 to linear peptides of protein M of SARS-CoV Urbani [2]: 0.4 | Binding of serum 6 to looped/cyclic peptides of protein M of SARS-CoV Urbani [2]: 0.8 | Binding of serum 37 to linear peptides of protein M of SARS-CoV Urbani [2]: 0.4 | Binding of serum 37 to looped/cyclic peptides of protein M of SARS-CoV Urbani [2]: 0.7 | Binding of serum 62 to linear peptides of protein M of SARS-CoV Urbani [2]: 0.5 | Binding of serum 62 to looped/cyclic peptides of protein M of SARS-CoV Urbani [2]: 0.6 | Binding of serum London to linear peptides of protein M of SARS-CoV Urbani [2]: 0.3 | Binding of serum London to looped/cyclic peptides of protein M of SARS-CoV Urbani [2]: 0.2 | Binding of serum SARS-green to linear peptides of protein M of SARS-CoV Urbani [2]: 0.5 | Binding of serum SARS-green to looped/cyclic peptides of protein M of SARS-CoV Urbani [2]: 0.2 | Binding of serum SARS-yellow to linear peptides of protein M of SARS-CoV Urbani [2]: 0.2 | Binding of serum SARS-yellow to looped/cyclic peptides of protein M of SARS-CoV Urbani [2]: 0.4 | Binding of Control Serum Blood-Bank to Looped peptides of the protein M of SARS-CoV Urbani [3]: 0.8 | Binding of Control serum Blood-bank to linear peptides of the protein M of SARS-CoV Urbani [3]: 0.8 | Binding of Control serum LUMC to linear peptides of the protein M of SARS-CoV Urbani [3]: 0.7 | Binding of Control serum LUMC to looped peptides of the protein M of SARS-CoV Urbani [3]: 0.6
